Laboratory results from patent publication US7201899B2, “Materials and methods for management of hyperacute rejection in human xenotransplantation” (BresaGen Limited, priority 1994, dated 2007).
Entries after “also recorded” stand apart in the source; their conditions may differ.

Legend:
rat heart = assay: Langendorf isolated perfused ex vivo heart model; details: sugar 10 mM, human plasma to 13%
Experimental: A. Preparation and Storage of Human Plasma • 1. Centrifuge fresh human blood at 3000 rpm, 10 min., 4° C. to remove red blood cells (RBC's) • 2. Remove the plasma • 3. Centrifuge the plasma at 10,000 rpm, 10 min. 4° C. to remove any remaining cells; decant the plasma • 4. Add 2.5 ml of 0.1M EDTA pH 7.30 for every 50 ml of plasma • 5. Store 50 ml aliquots at −70° C. • 6. For heat-inactivated plasma, heat at 56° C. for 60 min., then centrifuge at 2,500 rpm for 10 min.
Plasma prepared from different blood packs is thawed at 37° C., pooled and filtered (100 μm steel mesh, 8.0 μm and 4.5 μm Millipore filters, sequentially). Cacl2 is added at 0.58 mg/ml plasma, and the plasma kept on ice until ready for perfusion.
1. Anesthetize rats with Nembutal (1 μl sodium pentobarbitone (60 mg/ml)/g body weight) and mice with ether.
2. Surgically expose the heart and inject heparin (Porcine Mucous, 10,000 U/ml) into the femoral vein (rats: 0.3 ml injected).
3. Remove heart and place in ice-cold Krebs-Henseleit buffer containing heparin (0.2 ml/50 ml buffer. • Krebs-Henseleit buffer: • 119 mM NaCl • 25 mM NaHCO3 • 4.6 mM KCl • 1.2 mM MgSO4.7H2O • 1.3 mM CaCl2.2H2O • 1.2 mM KH2PO4 • 11 mM glucose • 0.25% (v/v) BSA • Adjust to pH 7.4; store at 4° C.
4. Connect aorta to the canula of the Langendorf perfusion apparatus and tie firmly. The apparatus was assembled by the present inventors according to experimental requirements of the Langendorf heart model as described in Doring & Dehnerrt, The Isolated Perfused Heart According to Langendorf, Bionesstechnik-Verlag March GmbH, D7806, West Germany.
5. Perfuse with Krebs-Henseleit buffer (made fresh each day), which is gassed continuously with carbogen (95% O2, 5% CO2) at a pressure of 100 mmHg, at 37° C.
6. Attach a hook, connected to a transducer (Physiograph MK-111-S, Narco Bio-Systems) to the apex of the heart.
7. Perfuse heart for 20 min. with Krebs-Henseleit buffer to enable heart to stabilize (reservoir volume: 270 ml).
8. […]

PK-1 and PAE's cells = assay: Antibody staining and FACS analysis of porcine cells; format: binding; details: for inhibition of anti-GAL IgM and/or IgG staining of porcine cells by sugar: anti-GAL antibodies pre-incubated with sugar (0.1 M) at 37° C. for 30 min; for decrease of anti-GAL antibody staining of PAE's (FIG. 1): anti-GAL antibody pre-incubated with sugar, versus anti-GAL antibody alone
Experimental: C. Antibody Staining and FACS Analysis • 1) Add 2 ml TED to a 75 cm^2 culture flask containing PK-1 or PAE'S, and incubate at room temperature for 10 min. • 2) Add RPMI plus 10% FCS (5 ml) to neutralize trypsin. • 3) Pellet cells by centrifugation (700 g, 5 min, • 4) Wash cells by resuspension and centrifugation in Hanks Buffer (×2). • 5) Pellet cells by centrifugation (700 g, 5 min, 4° C.). • 6) Resuspend cell pellet in Hanks buffer containing purified anti-GAL antibodies, GAL-depleted serum or GAL-depleted IgG and incubate at 4° C. for 60 min. All antibodies were used undiluted, or diluted 1:2 or 1:4 in Hanks buffer. • 7) Add 1 ml of Hanks Buffer, pellet cells by centrifugation and aspirate off supernatant. • 8) Resuspend pellet in FITC-labelled sheep-anti-human IgG Fab2 or IgM Fab2 (Silenus, Hawthorn, Australia) diluted 1:80 in Hanks buffer. • 9) Incubate for 30 min. at 4° C. • 10) Wash three times with Hanks buffer; resuspend pellet from final wash in 0.5 ml Hanks buffer. • 11) Analyze stained samples using a FACScan II (Becton Dickinson) according to the manufacturer's instructions.
The specificity of the anti-GAL antibody binding to porcine cells was determined by examining the ability of sugars of various structures to inhibit antibody binding. In these competition studies the anti-GAL antibodies were pre-incubated with sugar (0.1 M) at 37° C. for 30 min before adding to the cells.

Structure (SMILES)	cardiac function of rat heart perfused with human plasma plus sugar (rat heart)	inhibition of anti-GAL IgM and/or IgG staining of porcine cells by sugar (PK-1 and PAE's cells)	decrease of anti-GAL antibody staining of PAE's (FIG. 1) (PK-1 and PAE's cells)	cardiac function of rat heart perfused with human plasma plus sugar (rat heart; listed as lactose)
O=C[C@H](O)[C@@H](O)[C@H](O)[C@H](O)CO[C@H]1O[C@H](CO)[C@H](O)[C@H](O)[C@H]1O [Melibiose, 6-O-α-D-galactopyranosyl-D-glucose]	the heart was able to maintain a strong beat; also recorded: prolongs heart survival and output	inhibited	approximately 10 fold less	
OC[C@H]1O[C@@H](O[C@H]2[C@H](O)[C@@H](O)[C@@H](O)O[C@@H]2CO)[C@H](O)[C@@H](O)[C@H]1O [Lactose, 4-O-β-D.galactopyranosyl-α-D-glucose]	does-not prolong heart survival	not inhibited	not affected significantly	the heart essentially stopped beating within minutes. The same result was obtained
